Laboratory results reported in ChEMBL document CHEMBL1150252, “Heteroaromatic ester inhibitors of hepatitis A virus 3C proteinase: Evaluation of mode of action” (Bioorg Med Chem, 2008).
Where “and” joins values, the source holds several entries; their conditions need not be identical. Equal entries are not always repeated.

Key:
Hepatovirus A [1] = assay: Inhibition of hepatitis A virus 3C proteinase at 10 uM by microplate assay
Hepatovirus A [2] = assay: Inhibition of hepatitis A virus 3C proteinase at 1 uM by microplate assay
Hepatovirus A [3] = assay: Inhibition of hepatitis A virus 3C proteinase at 0.25 uM by microplate assay
[4] = tested on: O=C(Oc1cncc(Br)c1)c1ccco1; assay: Ratio of Kcat to Km of SARS coronavirus 3CL proteinase; details: Severe acute respiratory syndrome-related coronavirus
[5] = tested on: O=C(Oc1cncc(Br)c1)c1ccco1; assay: Activity of SARS coronavirus 3CL proteinase assessed as compound hydrolysis by HPLC; details: Severe acute respiratory syndrome-related coronavirus
Hepatovirus A [6] = assay: Ratio of Kcat to Km of hepatitis A virus 3C proteinase
Hepatovirus A [7] = assay: Activity of hepatitis A virus 3C proteinase assessed as compound hydrolysis by HPLC
[8] = Inhibition of hepatitis A virus 3C proteinase by microplate assay; parameters: species or system Hepatovirus A
Replicase polyprotein 1a = Replicase polyprotein 1a (Severe acute respiratory syndrome-related coronavirus, UniProt P0C6U8); assay: Inhibition of SARS coronavirus 3CL proteinase

CN(C)c1ccc(C(=O)Oc2cncc(Cl)c2)cc1
inhibition (Hepatovirus A [1]): > 90% | inhibition (Hepatovirus A [2]): > 90% | inhibition (Hepatovirus A [3]): 20%

Cc1onc(-c2ccccc2)c1C(=O)Oc1cncc(Cl)c1
inhibition (Hepatovirus A [1]): < 10% | inhibition (Hepatovirus A [3]): < 10%

O=C(Oc1ccc(Cl)nc1)c1cccs1
inhibition (Hepatovirus A [1]): 25%

CCN(CC)c1ccc(C(=O)Oc2cncc(Cl)c2)cc1
inhibition (Hepatovirus A [1]): 64%

COc1ccc(C(=O)Oc2cncc(Cl)c2)cc1
inhibition (Hepatovirus A [1]): 85%

O=C(Oc1cncc(Cl)c1)c1ccc(Cl)cc1O
inhibition (Hepatovirus A [1]): > 90% | inhibition (Hepatovirus A [2]): 59% | inhibition (Hepatovirus A [3]): 10%

O=C(Oc1cncc(Cl)c1)c1ccc[nH]1
inhibition (Hepatovirus A [1]): 92% | inhibition (Hepatovirus A [2]): < 10% | inhibition (Hepatovirus A [3]): < 10%

O=C(Oc1cncc(Cl)c1)c1ccc2[nH]cnc2c1
inhibition (Hepatovirus A [1]): 82% | inhibition (Hepatovirus A [2]): 75% | inhibition (Hepatovirus A [3]): 32%

O=C(Oc1cccnc1)c1cccs1
inhibition (Hepatovirus A [1]): 83% | inhibition (Hepatovirus A [2]): 21%

O=C(Oc1ccco1)c1cccnc1
inhibition (Hepatovirus A [1]): > 90%

O=C(Oc1cncc(Cl)c1)c1ccc(F)cc1
inhibition (Hepatovirus A [1]): > 90% | inhibition (Hepatovirus A [2]): 45%

O=C(Oc1cncc(Cl)c1)c1ccc(-c2ccccc2C(F)(F)F)o1
inhibition (Hepatovirus A [1]): > 90% | inhibition (Hepatovirus A [3]): < 10%

O=C(Oc1cncc(Cl)c1)c1cc2ccccc2s1
inhibition (Hepatovirus A [1]): > 90% | inhibition (Hepatovirus A [2]): 47%

O=C(Oc1cccnc1Cl)c1cccs1
inhibition (Hepatovirus A [1]): 11%

O=C(Oc1cncc(Cl)c1)c1ccc(-c2ccccc2[N+](=O)[O-])o1
inhibition (Hepatovirus A [1]): 37%

O=C(Oc1cncc(Cl)c1)c1cnc2cc(C(F)(F)F)ccc2c1O
inhibition (Hepatovirus A [1]): < 10%

O=C(Nc1cccnc1Cl)c1cccs1
inhibition (Hepatovirus A [1]): < 10%

Replicase polyprotein 1a (Severe acute respiratory syndrome-related coronavirus) (from UniProt P0C6U8)
kcat/Km [4]: 7 ×10³ /M/s | Km [5]: 0.026 µM | kcat [5]: 17 ×10⁻⁵ /s

O=C(Oc1cncc(Cl)c1)c1ccco1
kcat/Km (Hepatovirus A [6]): 4.6 ×10³ /M/s | inhibition (Hepatovirus A [1]): > 90% | Km (Hepatovirus A [7]): 0.24 µM | kcat (Hepatovirus A [7]): 110 ×10⁻⁵ /s | inhibition (Hepatovirus A [2]): > 90% | IC50 [8]: 338 nM | inhibition (Hepatovirus A [3]): 49%

O=C(/C=C/c1ccco1)Oc1cncc(Cl)c1
kcat/Km (Hepatovirus A [6]): 1.4 ×10³ /M/s | inhibition (Hepatovirus A [1]): 83% | Km (Hepatovirus A [7]): 0.18 µM | kcat (Hepatovirus A [7]): 25 ×10⁻⁵ /s | inhibition (Hepatovirus A [2]): > 90% | IC50 [8]: 140 nM | inhibition (Hepatovirus A [3]): 43%

O=S(=O)(Nc1cccnc1)c1cccs1
inhibition (Hepatovirus A [1]): < 10%

O=C(Oc1cncc(Cl)c1)c1cccc2ccccc12
inhibition (Hepatovirus A [1]): > 90% | inhibition (Hepatovirus A [2]): 30%

O=C(Oc1cncc(Cl)c1)c1ccc2ccccc2c1
inhibition (Hepatovirus A [1]): 23% | inhibition (Hepatovirus A [2]): 35%

O=C(Oc1cncc(Cl)c1)c1ccccc1Cl
inhibition (Hepatovirus A [1]): > 90% | inhibition (Hepatovirus A [2]): 67% | inhibition (Hepatovirus A [3]): 23%

COc1cccc(C(=O)Oc2cncc(Cl)c2)c1
inhibition (Hepatovirus A [1]): > 90% | inhibition (Hepatovirus A [2]): 50%

Cc1ccc(OC(=O)c2cccs2)cn1
inhibition (Hepatovirus A [1]): 23%

COc1ccc(C(=O)Oc2cncc(Cl)c2)cc1OC
inhibition (Hepatovirus A [1]): 59%

O=C(Oc1cncc(Cl)c1)c1cc2ccccc2[nH]1
inhibition (Hepatovirus A [1]): 80% | inhibition (Hepatovirus A [2]): 58%

O=C(Nc1cccnc1)c1cccs1
inhibition (Hepatovirus A [1]): < 10%

Clc1cncc(OCc2ccco2)c1
inhibition (Hepatovirus A [1]): < 10%

O=C(Oc1cncc(Cl)c1)c1ccncc1
inhibition (Hepatovirus A [1]): 37% | inhibition (Hepatovirus A [2]): 34%

O=C(Oc1cncc(Cl)c1)c1ccc2c(c1)OCO2
inhibition (Hepatovirus A [1]): > 90% | inhibition (Hepatovirus A [2]): 11%

O=C(Oc1cncc(Cl)c1)c1ccc(-c2ccc(Cl)cc2)o1
inhibition (Hepatovirus A [1]): > 90% | inhibition (Hepatovirus A [3]): 36%

O=C(Nc1ccncc1)c1cccs1
inhibition (Hepatovirus A [1]): < 10%

O=C(Nc1ccc(F)cn1)c1cccs1
inhibition (Hepatovirus A [1]): < 10%

O=C(Nc1ccc(Cl)cn1)c1cccs1
inhibition (Hepatovirus A [1]): < 10%

O=C(Oc1cncc(Cl)c1)c1cn[nH]c1
inhibition (Hepatovirus A [1]): 56% | inhibition (Hepatovirus A [2]): 21%

O=C(Oc1cncc(Cl)c1)C1CCCCC1
inhibition (Hepatovirus A [1]): 81% | inhibition (Hepatovirus A [2]): 32%

O=C(Oc1cncc(Cl)c1)c1ccccc1
inhibition (Hepatovirus A [1]): > 90% | inhibition (Hepatovirus A [2]): > 90% | inhibition (Hepatovirus A [3]): < 10%

O=C(Oc1cncc(Cl)c1)c1ccc(-c2ccc(Cl)cc2[N+](=O)[O-])o1
inhibition (Hepatovirus A [1]): 40%

Cc1ccc(OC(=O)c2cccs2)c([N+](=O)[O-])n1
inhibition (Hepatovirus A [1]): 14%

O=C(Oc1cncc(Cl)c1)c1cscn1
inhibition (Hepatovirus A [1]): > 90% | inhibition (Hepatovirus A [2]): 85% | inhibition (Hepatovirus A [3]): 37%

Cc1ccc(C(=O)Oc2cncc(Cl)c2)cc1
inhibition (Hepatovirus A [1]): 77% | inhibition (Hepatovirus A [2]): 70%

O=C(Oc1cncc(Cl)c1)c1cc([N+](=O)[O-])[nH]n1
inhibition (Hepatovirus A [1]): 54% | inhibition (Hepatovirus A [2]): 69% | IC50 [8]: 250 nM | inhibition (Hepatovirus A [3]): 53%

O=C(Oc1cncc(Cl)c1)c1cc2ccccc2o1
inhibition (Hepatovirus A [1]): > 90% | inhibition (Hepatovirus A [2]): > 90% | inhibition (Hepatovirus A [3]): < 10%

CNc1ccc(C(=O)Oc2cncc(Cl)c2)cc1
inhibition (Hepatovirus A [1]): 82% | inhibition (Hepatovirus A [2]): < 10%

O=C(Cc1cccnc1)c1cccs1
inhibition (Hepatovirus A [1]): 10%

O=C(Oc1cncc(Cl)c1)c1cc(F)c(Cl)nc1Cl
inhibition (Hepatovirus A [1]): 44% | inhibition (Hepatovirus A [2]): 19%

O=C(Oc1cncc(Cl)c1)c1ccc2ncsc2c1
inhibition (Hepatovirus A [1]): 74% | inhibition (Hepatovirus A [2]): 54% | inhibition (Hepatovirus A [3]): 27%

O=C(Oc1cccc(Cl)c1)c1ccco1
inhibition (Hepatovirus A [1]): 11%

O=C(Oc1cncc(Cl)c1)c1cccc(Cl)c1
inhibition (Hepatovirus A [1]): 29% | inhibition (Hepatovirus A [2]): 50%

NS(=O)(=O)c1ccc(C(=O)Oc2cncc(Cl)c2)cc1
inhibition (Hepatovirus A [1]): 64% | inhibition (Hepatovirus A [2]): 57% | inhibition (Hepatovirus A [3]): < 10%

O=C(Oc1cccc(Cl)n1)c1cccs1
inhibition (Hepatovirus A [1]): 16%

Cc1ccc(C(=O)Oc2cncc(Cl)c2)s1
inhibition (Hepatovirus A [1]): > 90% | inhibition (Hepatovirus A [3]): 24%

O=C(Oc1cncc(Cl)c1)c1ccc(Br)o1
inhibition (Hepatovirus A [1]): > 90% | IC50 [8]: 1200 nM | inhibition (Hepatovirus A [3]): 54%

O=C(Oc1cncc(Cl)c1)c1cc2ccccc2oc1=O
inhibition (Hepatovirus A [1]): 75%

O=C(Oc1cncc(Cl)c1)c1ccccc1[N+](=O)[O-]
inhibition (Hepatovirus A [1]): > 90% | inhibition (Hepatovirus A [2]): 24%

Nc1ccc(C(=O)Oc2cncc(Cl)c2)cc1
inhibition (Hepatovirus A [1]): > 90% | inhibition (Hepatovirus A [2]): 26%

Cc1ccsc1C(=O)Oc1cncc(Cl)c1
inhibition (Hepatovirus A [1]): < 10%

O=C(Oc1cncc(Cl)c1)c1ccc(-c2cc(C(F)(F)F)ccc2Cl)o1
inhibition (Hepatovirus A [1]): 76% | inhibition (Hepatovirus A [2]): 36%

COc1ccccc1C(=O)Oc1cncc(Cl)c1
inhibition (Hepatovirus A [1]): 85% | inhibition (Hepatovirus A [2]): 57% | inhibition (Hepatovirus A [3]): < 10%

Cc1ncccc1OC(=O)c1cccs1
inhibition (Hepatovirus A [1]): < 10% | inhibition (Hepatovirus A [2]): < 10%

Cc1ccc(OC(=O)c2cccs2)nc1
inhibition (Hepatovirus A [1]): 12%

Cc1cccc(OC(=O)c2cccs2)n1
inhibition (Hepatovirus A [1]): 91% | inhibition (Hepatovirus A [2]): < 10%

O=C(Oc1cncc(Cl)c1)c1ccc2[nH]nnc2c1
inhibition (Hepatovirus A [1]): > 90%

O=C(Oc1cncc(Cl)c1)c1c[nH]cn1
inhibition (Hepatovirus A [1]): 33% | inhibition (Hepatovirus A [2]): 47% | inhibition (Hepatovirus A [3]): 34%

Cc1ccccc1C(=O)Oc1cncc(Cl)c1
inhibition (Hepatovirus A [1]): 82%

O=C(Oc1cncc(Cl)c1)c1c[nH]c2ccccc12
inhibition (Hepatovirus A [1]): 13%

O=C(Nc1ccccn1)c1cccs1
inhibition (Hepatovirus A [1]): < 10%

Cc1cccc(C(=O)Oc2cncc(Cl)c2)c1
inhibition (Hepatovirus A [1]): 63% | inhibition (Hepatovirus A [2]): 32%

O=C(OCc1cncc(Br)c1)c1ccco1
inhibition (Hepatovirus A [1]): 67%

O=C(Oc1cncc(Cl)c1)c1ccoc1
inhibition (Hepatovirus A [1]): > 90%

O=C(Oc1cncc(Cl)c1)c1cccs1
inhibition (Hepatovirus A [1]): 93% and > 90% | inhibition (Hepatovirus A [2]): > 90% | IC50 [8]: 470 nM | IC50 (Replicase polyprotein 1a): 500 nM | inhibition (Hepatovirus A [3]): 50%

O=C(Oc1cncc(Cl)c1)c1ccc2[nH]ccc2c1
inhibition (Hepatovirus A [1]): 87% | inhibition (Hepatovirus A [2]): 60% | inhibition (Hepatovirus A [3]): 22%

O=C(Oc1ccccn1)c1cccs1
inhibition (Hepatovirus A [1]): 89% | inhibition (Hepatovirus A [2]): 8%

O=C(Oc1cncc(Cl)c1)c1ccc(-c2ccccc2)cc1
inhibition (Hepatovirus A [1]): 39% | inhibition (Hepatovirus A [2]): 23%

O=C(Oc1cncc(Cl)c1)c1cnccn1
inhibition (Hepatovirus A [1]): 22%

O=C(Oc1cncc(Br)c1)c1ccco1
kcat/Km (Hepatovirus A [6]): 10 ×10³ /M/s | Km (Hepatovirus A [7]): 0.12 µM | kcat (Hepatovirus A [7]): 119 ×10⁻⁵ /s | inhibition (Hepatovirus A [2]): > 90% | IC50 [8]: 53 nM | inhibition (Hepatovirus A [3]): 87%

O=C(Oc1ccncc1)c1cccs1
inhibition (Hepatovirus A [1]): < 10% | inhibition (Hepatovirus A [2]): 10%

O=C(/C=C/c1ccccc1)Oc1cncc(Cl)c1
inhibition (Hepatovirus A [1]): > 90% | inhibition (Hepatovirus A [2]): 53%
